Experimental data as given in US11629129B2, “Microbiocidal picolinamide derivatives” (SYNGENTA PARTICIPATIONS AG, priority 2018, dated 2023).

Tests used:
[1] = tested on: Monographella nivalis (Microdochium nivale); assay: Monographella nivalis (Microdochium nivale)/Liquid Culture (Foot Rot Cereals); assay type: cell-based; conditions: 200 ppm in the formulation, liquid culture, growth inhibition photometrically 4-5 days after application, compared to untreated control, read-out: disease control
Method: (§1) Monographella nivalis (Microdochium nivale)/Liquid Culture (Foot Rot Cereals) Conidia of the fungus from cryogenic storage are directly mixed into nutrient broth (PDB potato dextrose broth). After placing a (DMSO) solution of test compound into a microtiter plate (96-well format), the nutrient broth containing the fungal spores is added. The test plates are incubated at 24° C. and the inhibition of growth is determined photometrically 4-5 days after application.

[2] = tested on: Glomerella lagenarium (Colletotrichum lagenarium); assay: Glomerella lagenarium (Colletotrichum lagenarium)/Liquid Culture (Anthracnose); assay type: cell-based; conditions: Colletotrichum orbiculare; 200 ppm in the formulation; liquid culture, growth inhibition photometrically 3 to 4 days after application; compared to untreated control; read-out: disease control
Method: as §1, with “Glomerella lagenarium (Colletotrichum lagenarium)/Liquid” for “Monographella nivalis (Microdochium nivale)/Liquid”, “(Anthracnose)” for “(Foot Rot Cereals)”, “measured” for “determined”, “3 to 4” for “4-5”

[3] = tested on: Puccinia recondita f. sp. tritici; assay: Puccinia recondita f. sp. tritici/Wheat/Leaf Disc Preventative (Brown Rust); assay type: in vivo; conditions: foliar, 200 ppm in the formulation, wheat leaf segments cv. Kanzler, inoculated 1 day after application, assessed 7-9 days after application, compared to untreated, read-out: disease control
Method: Puccinia recondita f. sp. tritici/Wheat/Leaf Disc Preventative (Brown Rust) Wheat leaf segments cv. Kanzler are placed on agar in multiwell plates (24-well format) and sprayed with the formulated test compound diluted in water. The leaf disks are inoculated with a spore suspension of the fungus 1 day after application. The inoculated leaf segments are incubated at 19° C. and 75% rh under a light regime of 12 h light/12 h darkness in a climate cabinet and the activity of a compound is assessed as percent disease control compared to untreated when an appropriate level of disease damage appears in untreated check leaf segments (7-9 days after application).

[4] = tested on: Phaeosphaeria nodorum (Septoria nodorum); assay: Phaeosphaeria nodorum (Septoria nodorum)/Wheat/Leaf Disc Preventative (Glume Blotch); assay type: in vivo; conditions: Parastagonospora nodorum, foliar; 200 ppm in the formulation; wheat leaf segments cv. Kanzler, inoculated 2 days after application, assessed 5-7 days after application; compared to untreated; read-out: disease control
Method: Phaeosphaeria nodorum (Septoria nodorum)/Wheat/Leaf Disc Preventative (Glume Blotch) Wheat leaf segments cv. Kanzler are placed on agar in a multiwell plate (24-well format) and sprayed with the formulated test compound diluted in water. The leaf disks are inoculated with a spore suspension of the fungus 2 days after application. The inoculated test leaf disks are incubated at 20° C. and 75% rh under a light regime of 12 h light/12 h darkness in a climate cabinet and the activity of a compound is assessed as percent disease control compared to untreated when an appropriate level of disease damage appears in untreated check leaf disks (5-7 days after application).

[5] = tested on: Botryotinia fuckeliana (Botrvtis cinerea); assay: Botryotinia fuckeliana (Botrvtis cinerea)/Liquid Culture (Gray Mould); assay type: cell-based; conditions: Botrytis cinerea; 200 ppm in the formulation; liquid culture, growth inhibition photometrically 3-4 days after application; compared to untreated control; read-out: disease control
Method: as §1, with “Botryotinia fuckeliana (Botrvtis cinerea)/Liquid” for “Monographella nivalis (Microdochium nivale)/Liquid”, “(Gray Mould)” for “(Foot Rot Cereals)”, “(Vogels” for “(PDB potato dextrose”, “3-4” for “4-5”

[6] = tested on: Mycosphaerella arachidis (Cercospora arachidicola); assay: Mycosphaerella arachidis (Cercospora arachidicola)/Liquid Culture (Early Leaf Spot); assay type: cell-based; conditions: 200 ppm in the formulation, liquid culture, growth inhibition photometrically 4-5 days after application, compared to untreated control, read-out: disease control
Method: as §1, with “Mycosphaerella arachidis (Cercospora arachidicola)/Liquid” for “Monographella nivalis (Microdochium nivale)/Liquid”, “(Early Leaf Spot)” for “(Foot Rot Cereals)”

[7] = tested on: Mycosphaerella graminicola (Septoria tritici); assay: Mycosphaerella graminicola (Septoria tritici)/Liquid Culture (Septoria Blotch); assay type: cell-based; conditions: Zymoseptoria tritici; 200 ppm in the formulation; liquid culture, growth inhibition photometrically 4 to 5 days after application; compared to untreated control; read-out: disease control
Method: as §1, with “Mycosphaerella graminicola (Septoria tritici)/Liquid” for “Monographella nivalis (Microdochium nivale)/Liquid”, “(Septoria Blotch)” for “(Foot Rot Cereals)”, “4 to 5” for “4-5”

SMILES | inhibition of growth at 200 ppm [1] [%] | inhibition of growth at 200 ppm [2] [%] | pest or weed control at 200 ppm [3] [%] | pest or weed control at 200 ppm [4] [%] | inhibition of growth at 200 ppm [5] [%] | inhibition of growth at 200 ppm [6] [%] | inhibition of growth at 200 ppm [7] [%] | melting point [°C]
COc1ccnc(C(=O)N[C@@H](C)C(=O)O[C@@H](C)c2ccc(-c3cccc(C)c3C)cc2)c1O [I.m.001, [(1S)-1-[4-(2,3-dimethylphenyl)phenyl]ethyl] (2S)-2-[(3-hydroxy-4-methoxy-pyridine-2-carbonyl)amino] propanoate] | ≥ 80 | ≥ 80 | ≥ 80 | ≥ 80 | ≥ 80 | ≥ 80 | ≥ 80 | 
COc1ccnc(C(=O)N[C@@H](C)C(=O)O[C@@H](C)c2ccc(-c3ccc(Br)cc3)cc2)c1O [I.v.001, [(1S)-1-[4-(4-bromophenyl)phenyl]ethyl] (2S)-2-[(3-hydroxy-4-methoxy-pyridine-2-carbonyl)amino] propanoate] | ≥ 80 | ≥ 80 | ≥ 80 | ≥ 80 | ≥ 80 | ≥ 80 | ≥ 80 | 
COc1ccnc(C(=O)N[C@@H](C)C(=O)O[C@@H](C)c2ccc(-c3ccccc3C)cc2)c1O [I.h.001, [(1S)-1-[4-(o-tolyl)phenyl]ethyl] (2S)-2-[(3-hydroxy-4-methoxy-pyridine-2-carbonyl)amino] propanoate] | ≥ 80 | ≥ 80 | ≥ 80 | ≥ 80 | ≥ 80 | ≥ 80 | ≥ 80 | 
COc1ccnc(C(=O)N[C@@H](C)C(=O)O[C@@H](C)c2ccc(-c3ccc(Cl)cn3)cc2)c1O [I.aa.001, [(1S)-1-[4-(5-chloro-2-pyridyl)phenyl]ethyl] (2S)-2-[(3-hydroxy-4-methoxy-pyridine-2-carbonyl)amino] propanoate] | ≥ 80 | ≥ 80 | ≥ 80 |  |  | ≥ 80 | ≥ 80 | 144 to 145
